Earlier results, collected in patent US6355670B1, “Use of estrogen antagonists and estrogen agonists in inhibiting pathological conditions” (Pfizer, Inc., priority 1996, dated 2002).

Columns and labels:
estrogen receptor = target: T1, estrogen receptor (Homo sapiens, UniProt P03372); settings: higher, relative to tamoxifen
T1 sequence (P03372 1-595): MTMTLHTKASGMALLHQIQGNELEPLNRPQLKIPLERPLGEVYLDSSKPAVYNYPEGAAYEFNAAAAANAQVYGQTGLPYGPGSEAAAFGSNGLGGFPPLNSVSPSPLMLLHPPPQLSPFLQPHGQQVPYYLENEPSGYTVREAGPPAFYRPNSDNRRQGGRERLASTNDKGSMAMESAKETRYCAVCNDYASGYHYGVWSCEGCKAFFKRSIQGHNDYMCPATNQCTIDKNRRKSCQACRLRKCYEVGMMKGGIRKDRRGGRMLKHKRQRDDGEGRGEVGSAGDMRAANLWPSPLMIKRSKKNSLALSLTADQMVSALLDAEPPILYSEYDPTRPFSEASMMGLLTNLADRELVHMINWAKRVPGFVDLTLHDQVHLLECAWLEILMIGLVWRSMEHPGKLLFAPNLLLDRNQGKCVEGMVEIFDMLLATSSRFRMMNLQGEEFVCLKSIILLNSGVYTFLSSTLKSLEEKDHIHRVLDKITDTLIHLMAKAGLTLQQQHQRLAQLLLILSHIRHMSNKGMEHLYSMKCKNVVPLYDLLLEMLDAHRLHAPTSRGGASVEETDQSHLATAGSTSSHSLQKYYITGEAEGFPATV

[1] = in vivo or in vitro
[2] = tested on: intact or ovariectomized female rats
[3] = tested on: streptozotocin diabetic rats; settings: implanted

## CC/C(=C(/c1ccc(OCCN(C)C)cc1)c1cccc(O)c1)c1ccccc1 [droloxifene, 3-hydroxytamoxifen]
Estrogen receptor
  binding affinity to the estrogen receptor compared to tamoxifen: 10-60 fold
[1]
  carcinogenic or mutagenic effects: devoid of in vivo or in vitro carcinogenic or nutagenic effects

## CC/C(=C(\c1ccccc1)c1ccc(OCCN(C)C)cc1)c1ccccc1 [tamoxifen]
rats
  liver tumors: causes liver tumors in rats

## C[C@]12CC[C@H]3[C@@H](CCC4=CC(=O)CC[C@@]43C)[C@@H]1CC[C@@H]2O [testosterone]
[2]
  insulin resistance: marked insulin resistance
[3]
  ability of residual insulin to maintain glycemic control: antagonized the ability of residual insulin to maintain glycemic control
